Reference: patent US20210238169A1, “PROCESS FOR PREPARING A COMPOUND OF FORMULA (XIII)” (PULMOCIDE LIMITED, priority 2014, published 2021)
Converted amounts (≈) assume the structure as drawn.

What was measured:
[1] = test system: Aspergillus fumigatus (NCPF2010); assay: Aspergillus fumigatus invasion in human alveoli bilayers (transwells), GM in lower chamber; format: cell-based; conditions: for DFB50 (days taken to reach a fungal burden of 50% of control) / GM Levels in the Lower Chamber, OD value / GM Levels in the Lower Chamber, % inhibition vs. control: Compound (I) 0.1 μg/mL upper chamber, Posaconazole 0.01 μg/mL lower chamber
Description: In vitro models of human alveoli, consisting of a bilayer of human alveolar epithelial cells and endothelial cells, were prepared as previously described (Hope et al., 2007). […] Primary human pulmonary artery endothelial cells (HPAEC) were harvested and diluted to 10^6 cells/mL in EGM-2 media (Lonza, Basel, Switzerland). Transwells were inverted and the cell suspension (100 μL/well) was applied to the base of each transwell. The inverted transwells were incubated at RT within a flow hood for 2 hr after which they were turned upright. EGM-2 media was added to the lower (700 μL/well) and upper (100 μL/well) compartments and the transwells were incubated for 48 hr (37° C., 5% CO2). The EGM-2 media in the lower compartment was then replaced with fresh EGM-2 media. A549 cells were harvested and diluted to 5×10^5 cells/mL in 10% EBM, then added to the upper compartment (100 μL/well) of all transwells and the plates incubated for 72 hr (37° C., 5% CO2). Conidia of Aspergillus fumigatus (the itraconazole sensitive strain NCPF2010 and the itraconazole resistant strain TR34-L98H) were cultured separately in Sabouraud dextrose agar for 3 days. A stock conidia suspension of either strain was prepared from a Sabouraud dextrose agar culture by washing with PBS-tween (10 mL; PBS containing 0.05% Tween-20, 100 U/mL Penicillin and 100 U/mL Streptomycin). The conidia count was assessed using a Neubauer haemocytometer and adjusted to 10^6 conidia/mL with PBS. A working stock of conidia was prepared in EBM (conc of 10^5 conidia/mL) immediately prior to use.
The media in the upper compartment was aspirated and that containing the appropriate test and reference compounds, or vehicle, were added (100 μL/well). Transwells were then transferred into the 24-well plate containing the test and reference compounds or DMSO vehicle. After incubation for 1 hr (35° C., 5% CO2) the conidia suspension (10 μL/well) was added to the upper compartment of each transwell. Plates were then incubated for 24 hr (35° C., 5% CO2). Supernatants from each compartment (5 μL/compartment) were collected and stored (−20° C.). Media was replaced daily after collection of the supernatants and all wells were treated with test and reference compounds or with DMSO, as described above, for 3 days. Samples continued to be collected until fungal growth was visible by eye in all transwells. The levels of GM in the supernatant in lower compartment were then measured by ELISA (BioRad, CA, USA) as an index of Aspergillus fumigatus invasion.

[2] = test system: Aspergillus fumigatus (ATCC 13073); assay: IFNγ, IL-17 and MDA levels in BALF of Aspergillus fumigatus infected mice; format: in vivo; conditions: for ID50, IFNγ in BALF / ID50, IL-17 in BALF / ID50, MDA in BALF: Prophylactic Regimen
Description: Aspergillus fumigatus (ATCC 13073 [strain: NIH 5233], American Type Culture Collection, Manassas, Va., USA) was grown on Malt agar (Nissui Pharmaceutical, Tokyo, Japan) plates for 6-7 days at RT (24±1° C.). Spores were aseptically dislodged from the agar plates and suspended in sterile distilled water with 0.05% Tween 80 and 0.1% agar. On the day of infection, spore counts were assessed by haemocytometer and the inoculum was adjusted to obtain a concentration of 1.67×10^8 spores mL^−1 of physiological saline.
On day 0, animals were infected with the spore suspension (35 μL intra-nasally).
Test compounds were administered intra-nasally ([…]) once daily, 30 min before infection on day 0 and then on days 1, 2 and 3 (representing prophylactic treatment) or on days 1, 2 and 3 only (representing therapeutic treatment). For extended prophylactic treatment, test compounds (35 μL of a suspension of 0.0032 or 0.016 mg/mL in physiological saline) were administered intra-nasally once daily for seven days; then 30 min before infection on day 0, and thereafter, either on days 1, 2 and 3 after infection, or on day 0 only. The effects of these treatment paradigms were compared with those obtained when treatment was restricted to one day and 30 min before inoculation and then on days 1, 2 and 3 post infection; or reduced still further to one day and 30 min before infection only.
Six hours after the last dose, animals were anesthetised, the trachea was cannulated and BALF was collected. The total number of alveolar cells was determined using a haemocytometer, and the numbers of alveolar macrophages and neutrophils were determined by FACS analysis (EPICS® ALTRA II, Beckman Coulter, Inc., Fullerton, Calif., USA) using anti-mouse MOMA2-FITC (macrophage) or anti-mouse 7/4 (neutrophil), respectively, as previously reported (Kimura et al., 2013). The levels of IFN-γ and IL-17 in BALF, and IL-6 and TNFα in serum were determined using Quantikine® mouse IFN-γ, IL-17, IL-6 or TNF-α ELISA kit (R&D systems, Inc., Minneapolis, Minn., USA) respectively. MDA, an oxidative stress marker, was assayed using OxiSelect® TBARS Assay Kits (MDA Quantitation; Cell Biolabs Inc, San Diego, Calif., USA). Aspergillus GM in serum was determination using Platelia GM-EIA kits (Bio-Rad Laboratories, Redmond, Wash., USA). Cut-off index was calculated by the formula: Cut-off index=OD in sample/OD in cut-off control provided in kit. For tissue fungal load assays, 100 mg of lung tissue was removed aseptically and homogenized in 0.2 mL of 0.1% agar in sterile distilled water. Serially diluted lung homogenates were plated on Malt agar plates (50 μL/plate), and incubated at 24±1° C. for 72 to 96 h. The colonies of A. fumigatus on each plate was counted and the fungal titre presented as CFU per gram of lung tissue.

[3] = prophylactic, 0.08 mg/mL intra-nasally
[4] = prophylactic, 0.4 mg/mL intra-nasally
[5] = prophylactic, 2 mg/mL intra-nasally
[6] = therapeutic, 0.4 mg/mL intra-nasally
[7] = therapeutic, 2 mg/mL intra-nasally
[8] = therapeutic, 10 mg/mL intra-nasally

CC[C@@H]([C@H](C)O)n1ncn(-c2ccc(N3CCN(c4ccc(OC[C@@H]5CO[C@@](Cn6cncn6)(c6ccc(F)cc6F)C5)cc4)CC3)cc2)c1=O [Posaconazole]
DFB50 (days taken to reach a fungal burden of 50% of control) [1]: 1.45 days
GM Levels in the Lower Chamber, OD value ([1]; Treatment Day 0): 0 OD
GM Levels in the Lower Chamber, % inhibition vs. control ([1]; Treatment Day 1): 91%
GM Levels in the Lower Chamber, OD value ([1]; Treatment Day 1): 0.064 OD
GM Levels in the Lower Chamber, % inhibition vs. control ([1]; Treatment Day 2): 15%
GM Levels in the Lower Chamber, OD value ([1]; Treatment Day 2): 1.01 OD
GM Levels in the Lower Chamber, % inhibition vs. control ([1]; Treatment Day 3): 4.1%
GM Levels in the Lower Chamber, OD value ([1]; Treatment Day 3): 1.14 OD
GM Levels in the Lower Chamber, % inhibition vs. control ([1]; Treatment Day 4): 1.1%
GM Levels in the Lower Chamber, OD value ([1]; Treatment Day 4): 1.17 OD
GM Levels in the Lower Chamber, % inhibition vs. control ([1]; Treatment Day 5): −0.6%
GM Levels in the Lower Chamber, OD value ([1]; Treatment Day 5): 1.18 OD
GM Levels in the Lower Chamber, % inhibition vs. control ([1]; Treatment Day 6): −1.1%
GM Levels in the Lower Chamber, OD value ([1]; Treatment Day 6): 1.19 OD
GM Levels in the Lower Chamber, % inhibition vs. control ([1]; Treatment Day 7): 0.3%
GM Levels in the Lower Chamber, OD value ([1]; Treatment Day 7): 1.17 OD
GM Levels in the Lower Chamber, % inhibition vs. control ([1]; Treatment Day 8): 0.8%
GM Levels in the Lower Chamber, OD value ([1]; Treatment Day 8): 1.15 OD
ID50, IFNγ in BALF [2]: 220 µg/mL (≈ 314 µM)
ID50, IL-17 in BALF [2]: 610 µg/mL (≈ 870 µM)
ID50, MDA in BALF [2]: 690 µg/mL (≈ 985 µM)

Cc1cc(N2CCN(c3ccc(C(=O)Nc4ccc(F)cc4)cc3)CC2)ccc1OC[C@@H]1CO[C@@](Cn2cncn2)(c2ccc(F)cc2F)C1 [Compound (I), 4-(4-(4-(((3R,5R)-5-((1H-1,2,4-triazol-1-yl)methyl)-5-(2,4-difluorophenyl)tetrahydrofuran-3-yl)methoxy)-3-methylphenyl)piperazin-1-yl)-N-(4-fluorophenyl)benzamide]
DFB50 (days taken to reach a fungal burden of 50% of control) [1]: 1.13 days
effect of combination therapy on invasion in alveoli bilayers ([1]; Compound (I) combined with intraconazole, voriconazole or caspofungin (results not shown)): synergistic or additive effect
GM Levels in the Lower Chamber, % inhibition vs. control ([1]; Treatment Day 1): 86%
GM Levels in the Lower Chamber, OD value ([1]; Treatment Day 1): 0.091 OD
GM Levels in the Lower Chamber, % inhibition vs. control ([1]; Treatment Day 2): 3.4%
GM Levels in the Lower Chamber, OD value ([1]; Treatment Day 2): 1.15 OD
GM Levels in the Lower Chamber, % inhibition vs. control ([1]; Treatment Day 3): 3.7%
GM Levels in the Lower Chamber, OD value ([1]; Treatment Day 3): 1.14 OD
GM Levels in the Lower Chamber, % inhibition vs. control ([1]; Treatment Day 4): 4.5%
GM Levels in the Lower Chamber, OD value ([1]; Treatment Day 4): 1.13 OD
GM Levels in the Lower Chamber, % inhibition vs. control ([1]; Treatment Day 5): 0.3%
GM Levels in the Lower Chamber, % inhibition vs. control ([1]; Treatment Day 7): 0.9%
GM Levels in the Lower Chamber, OD value ([1]; Treatment Day 7): 1.16 OD
GM Levels in the Lower Chamber, % inhibition vs. control ([1]; Treatment Day 8): 2.8%
GM Levels in the Lower Chamber, OD value ([1]; Treatment Day 8): 1.13 OD
ID50, IFNγ in BALF [2]: <80 µg/mL
ID50, IL-17 in BALF [2]: 74 µg/mL (≈ 108 µM)
ID50, MDA in BALF [2]: 110 µg/mL (≈ 161 µM)
IFNγ concentration in BALF [2, 3]: 3.7 ± 1.7 pg/mL
IFNγ in BALF, % Inhibition [2, 3]: 60%
IL-17 concentration in BALF [2, 3]: 9.8 ± 5.3 pg/mL
IL-17 in BALF, % Inhibition [2, 3]: 51%
MDA concentration in BALF [2, 3]: 0.96 ± 0.32 µg/mL
MDA in BALF, % Inhibition [2, 3]: 47%
IFNγ concentration in BALF [2, 4]: 3.0 ± 0.8 pg/mL
IFNγ in BALF, % Inhibition [2, 4]: 67%
IL-17 concentration in BALF [2, 4]: 6.7 ± 4.9 pg/mL
IL-17 in BALF, % Inhibition [2, 4]: 66%
MDA concentration in BALF [2, 4]: 0.57 ± 0.22 µg/mL
MDA in BALF, % Inhibition [2, 4]: 68%
IFNγ concentration in BALF [2, 5]: 2.5 ± 0.3 pg/mL
IFNγ in BALF, % Inhibition [2, 5]: 73%
IL-17 concentration in BALF [2, 5]: 3.2 ± 0.8 pg/mL
IL-17 in BALF, % Inhibition [2, 5]: 84%
MDA concentration in BALF [2, 5]: 0.34 ± 0.05 µg/mL
MDA in BALF, % Inhibition [2, 5]: 81%
IFNγ concentration in BALF [2, 6]: 4.3 ± 2.2 pg/mL
IFNγ in BALF, % Inhibition [2, 6]: 53%
IL-17 concentration in BALF [2, 6]: 8.5 ± 2.9 pg/mL
IL-17 in BALF, % Inhibition [2, 6]: 57%
MDA concentration in BALF [2, 6]: 0.45 ± 0.10 µg/mL
MDA in BALF, % Inhibition [2, 6]: 75%
IFNγ concentration in BALF [2, 7]: 3.3 ± 0.8 pg/mL
IFNγ in BALF, % Inhibition [2, 7]: 64%
IL-17 concentration in BALF [2, 7]: 4.0 ± 0.8 pg/mL
IL-17 in BALF, % Inhibition [2, 7]: 80%
MDA concentration in BALF [2, 7]: 0.37 ± 0.10 µg/mL
MDA in BALF, % Inhibition [2, 7]: 79%
IFNγ concentration in BALF [2, 8]: 2.1 ± 0.3 pg/mL
IFNγ in BALF, % Inhibition [2, 8]: 77%
IL-17 concentration in BALF [2, 8]: 2.9 ± 0.7 pg/mL
IL-17 in BALF, % Inhibition [2, 8]: 85%
MDA concentration in BALF [2, 8]: 0.25 ± 0.05 µg/mL
MDA in BALF, % Inhibition [2, 8]: 86%
